Results on 21 compounds are retold here after patent US11753395B2 (Kinnate Biopharma Inc., priority 2021, dated 2023).

Assay [1] concerns the target T1, Ba/F3-TPR-MET-D1228N cells (Homo sapiens, UniProt P08581, D1228N, cells depend on it).
T1 construct: fused on or other part: P12270 (Nucleoprotein TPR)
Description: CellTiter-Glo Cell Viability Assay, Ba/F3-TPR-MET-D1228N. Format: cell-based. The settings on record: 72 hours. The procedure, abridged: (§1)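 IC50 values come from curve-fitted luminescence. Viable-cell ATP was read by CellTiter-Glo 2.0 after a 72 h, 37 °C incubation of 3000 TPR-MET or D1228N-mutant Ba/F3 cells per well. Compounds were tested as a 9-point, 3-fold series with 0.1% DMSO final.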

In a further assay the target is T2, Ba/F3-TPR-MET cells (Homo sapiens, UniProt P08581).
T2 construct: fused on or other part: P12270 (Nucleoprotein TPR)
Put plainly: CellTiter-Glo Cell Viability Assay, Ba/F3-TPR-MET. It is filed as cell-based. As to conditions: 72 hours. A digest of the protocol:
as §1
In general terms: ATP-based viability assays read luminescence as a measure of living cells.

Another assay concerns the target T3, MET (Homo sapiens, UniProt P08581).
T3 construct: purchased Carna Biosciences 08-151
Put plainly: MET Mobility Shift Assay. The settings on record: biochemical assay IC50; 100 μM ATP, 60 minute kinase reaction. The procedure, abridged: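 IC50s come from inhibition of substrate-to-phosphopeptide conversion, read by electrophoretic mobility shift. Reaction: 100 μM ATP, 1.5 μM 5-FAM peptide, 0.625 nM MET, 10 mM MgCl2, 60 min, after a 30 min room-temperature enzyme pre-incubation, quenched with EDTA.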

In a further assay the target is T4, MET D1228N (Homo sapiens, UniProt P08581, D1228N).
T4 construct: purchased Signalchem M52-12IG
T4 sequence (P08581 25-1390 D1228N): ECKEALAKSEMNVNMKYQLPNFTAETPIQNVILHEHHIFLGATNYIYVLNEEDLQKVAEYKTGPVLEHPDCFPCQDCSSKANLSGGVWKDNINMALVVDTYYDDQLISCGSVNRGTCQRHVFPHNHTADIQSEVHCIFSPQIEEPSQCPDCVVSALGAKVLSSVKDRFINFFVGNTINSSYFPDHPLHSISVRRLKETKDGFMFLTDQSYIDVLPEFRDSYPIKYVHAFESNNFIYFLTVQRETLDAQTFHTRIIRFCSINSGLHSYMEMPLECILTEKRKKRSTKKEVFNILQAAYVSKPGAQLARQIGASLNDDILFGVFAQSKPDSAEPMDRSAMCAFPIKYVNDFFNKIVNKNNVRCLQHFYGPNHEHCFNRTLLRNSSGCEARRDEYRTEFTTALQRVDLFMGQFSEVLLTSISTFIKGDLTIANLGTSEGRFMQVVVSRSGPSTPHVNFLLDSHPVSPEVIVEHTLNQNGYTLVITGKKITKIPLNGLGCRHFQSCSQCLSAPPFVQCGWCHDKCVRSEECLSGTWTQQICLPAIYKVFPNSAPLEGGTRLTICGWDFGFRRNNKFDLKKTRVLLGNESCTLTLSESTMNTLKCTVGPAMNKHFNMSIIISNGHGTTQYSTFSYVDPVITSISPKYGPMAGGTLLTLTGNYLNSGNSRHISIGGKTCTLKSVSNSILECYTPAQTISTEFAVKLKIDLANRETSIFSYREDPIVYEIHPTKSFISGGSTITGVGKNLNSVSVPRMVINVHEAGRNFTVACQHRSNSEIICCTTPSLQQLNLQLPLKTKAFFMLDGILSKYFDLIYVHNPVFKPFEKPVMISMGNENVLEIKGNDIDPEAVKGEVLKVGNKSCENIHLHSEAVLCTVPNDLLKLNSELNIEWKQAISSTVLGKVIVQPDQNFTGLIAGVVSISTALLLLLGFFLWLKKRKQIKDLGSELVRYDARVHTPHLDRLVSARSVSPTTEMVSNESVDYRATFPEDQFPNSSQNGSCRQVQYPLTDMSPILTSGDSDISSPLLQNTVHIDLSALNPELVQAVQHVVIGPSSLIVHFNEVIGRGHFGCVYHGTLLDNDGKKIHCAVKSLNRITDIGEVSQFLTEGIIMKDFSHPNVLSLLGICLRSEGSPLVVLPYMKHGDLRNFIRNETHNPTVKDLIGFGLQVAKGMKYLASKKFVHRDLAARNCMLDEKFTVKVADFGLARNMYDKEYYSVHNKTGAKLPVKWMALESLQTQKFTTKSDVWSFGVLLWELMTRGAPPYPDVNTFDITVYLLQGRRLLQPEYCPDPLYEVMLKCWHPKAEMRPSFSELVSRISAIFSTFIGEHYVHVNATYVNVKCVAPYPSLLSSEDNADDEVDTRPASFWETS
Put plainly: MET D1228N Mobility Shift Assay. The settings on record: biochemical assay IC50; 100 μM ATP, 60 minute kinase reaction. A digest of the protocol:
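Microfluidic electrophoresis quantified phosphorylated versus unphosphorylated 5-FAM-KKKKEEIYFFF peptide (1.5 μM) after a 60 min reaction with 100 μM ATP. MET D1228N (0.313 nM) in 50 mM HEPES, 10 mM MgCl2, 2 mM DTT was preincubated 30 min; IC50 fitted to conversion inhibition.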

The structures appear in SMILES notation. Where only a bound is given, the exact number is not on record here.

T1 sequence (P08581 whole entry D1228N, the tested form may be a part): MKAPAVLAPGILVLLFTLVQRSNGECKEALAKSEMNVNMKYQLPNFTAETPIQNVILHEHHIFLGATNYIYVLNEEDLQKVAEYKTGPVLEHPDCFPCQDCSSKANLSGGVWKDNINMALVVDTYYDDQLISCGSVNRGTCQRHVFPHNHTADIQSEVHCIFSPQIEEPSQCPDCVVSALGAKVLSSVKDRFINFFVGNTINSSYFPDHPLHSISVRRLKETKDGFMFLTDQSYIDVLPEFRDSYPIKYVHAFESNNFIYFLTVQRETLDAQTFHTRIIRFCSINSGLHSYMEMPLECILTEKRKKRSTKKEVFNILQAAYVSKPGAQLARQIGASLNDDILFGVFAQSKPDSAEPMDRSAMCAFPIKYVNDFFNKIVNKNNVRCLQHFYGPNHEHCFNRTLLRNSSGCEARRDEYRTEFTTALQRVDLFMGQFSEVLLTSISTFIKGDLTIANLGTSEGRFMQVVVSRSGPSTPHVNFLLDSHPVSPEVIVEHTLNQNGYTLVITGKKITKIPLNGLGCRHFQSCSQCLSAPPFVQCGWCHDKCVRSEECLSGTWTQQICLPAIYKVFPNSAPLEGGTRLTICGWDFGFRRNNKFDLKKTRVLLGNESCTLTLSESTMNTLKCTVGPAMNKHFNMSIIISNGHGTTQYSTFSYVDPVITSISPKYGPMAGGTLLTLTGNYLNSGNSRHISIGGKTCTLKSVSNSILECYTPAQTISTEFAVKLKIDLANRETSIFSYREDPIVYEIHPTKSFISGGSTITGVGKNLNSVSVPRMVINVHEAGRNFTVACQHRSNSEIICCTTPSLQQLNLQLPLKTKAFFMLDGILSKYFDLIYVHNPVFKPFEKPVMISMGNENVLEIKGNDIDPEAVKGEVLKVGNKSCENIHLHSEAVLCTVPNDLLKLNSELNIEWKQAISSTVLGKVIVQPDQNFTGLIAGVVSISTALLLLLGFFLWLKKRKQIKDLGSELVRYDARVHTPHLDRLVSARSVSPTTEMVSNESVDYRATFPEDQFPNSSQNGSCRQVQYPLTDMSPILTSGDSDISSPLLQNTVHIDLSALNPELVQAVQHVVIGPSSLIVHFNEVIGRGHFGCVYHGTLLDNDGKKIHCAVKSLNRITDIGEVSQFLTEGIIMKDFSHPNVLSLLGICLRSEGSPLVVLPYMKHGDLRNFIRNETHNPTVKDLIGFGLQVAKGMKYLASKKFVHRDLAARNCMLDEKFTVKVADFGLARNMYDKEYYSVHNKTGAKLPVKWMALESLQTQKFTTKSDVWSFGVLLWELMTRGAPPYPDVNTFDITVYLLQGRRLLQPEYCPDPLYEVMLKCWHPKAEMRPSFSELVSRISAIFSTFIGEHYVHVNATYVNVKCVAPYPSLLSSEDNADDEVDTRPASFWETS
T3 sequence (P08581 25-1390): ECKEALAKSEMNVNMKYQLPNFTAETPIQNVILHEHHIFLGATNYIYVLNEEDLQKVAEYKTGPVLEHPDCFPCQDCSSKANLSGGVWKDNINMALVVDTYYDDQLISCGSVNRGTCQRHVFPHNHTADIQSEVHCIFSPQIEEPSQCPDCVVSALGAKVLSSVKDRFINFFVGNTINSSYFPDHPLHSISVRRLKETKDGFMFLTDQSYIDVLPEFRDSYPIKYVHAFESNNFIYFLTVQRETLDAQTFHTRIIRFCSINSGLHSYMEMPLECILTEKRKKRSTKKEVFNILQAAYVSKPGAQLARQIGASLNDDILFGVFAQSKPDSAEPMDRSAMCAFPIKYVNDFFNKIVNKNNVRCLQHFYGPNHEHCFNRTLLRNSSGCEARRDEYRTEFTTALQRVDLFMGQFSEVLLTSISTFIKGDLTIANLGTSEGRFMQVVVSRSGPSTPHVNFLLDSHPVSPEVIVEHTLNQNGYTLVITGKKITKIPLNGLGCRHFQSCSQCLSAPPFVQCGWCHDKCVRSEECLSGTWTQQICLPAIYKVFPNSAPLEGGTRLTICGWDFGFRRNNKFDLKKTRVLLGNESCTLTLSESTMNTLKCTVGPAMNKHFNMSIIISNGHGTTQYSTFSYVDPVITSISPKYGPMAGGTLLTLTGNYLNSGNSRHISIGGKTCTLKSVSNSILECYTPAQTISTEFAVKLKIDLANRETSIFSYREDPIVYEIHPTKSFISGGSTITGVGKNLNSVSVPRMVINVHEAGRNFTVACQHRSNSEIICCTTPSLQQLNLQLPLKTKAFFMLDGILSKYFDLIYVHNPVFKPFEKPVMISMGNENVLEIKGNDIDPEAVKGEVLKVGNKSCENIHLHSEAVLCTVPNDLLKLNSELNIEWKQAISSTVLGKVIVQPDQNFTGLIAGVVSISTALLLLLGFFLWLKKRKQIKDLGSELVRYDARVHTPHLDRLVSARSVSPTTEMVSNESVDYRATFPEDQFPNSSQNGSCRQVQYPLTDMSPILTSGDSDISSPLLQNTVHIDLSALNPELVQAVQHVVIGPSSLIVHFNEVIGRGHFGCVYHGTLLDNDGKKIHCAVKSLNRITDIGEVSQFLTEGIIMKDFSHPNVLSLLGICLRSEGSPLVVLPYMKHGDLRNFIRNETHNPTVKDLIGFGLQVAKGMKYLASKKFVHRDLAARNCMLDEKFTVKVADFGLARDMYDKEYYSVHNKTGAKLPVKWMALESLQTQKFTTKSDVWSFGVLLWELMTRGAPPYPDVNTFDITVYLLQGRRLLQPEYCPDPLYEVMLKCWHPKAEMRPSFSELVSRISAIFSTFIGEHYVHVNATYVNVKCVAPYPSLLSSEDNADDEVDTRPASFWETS

On to `CNCCOc1cc2nccc(Oc3c(F)cc(NC(=O)c4cnc(C)nc4OC4CC4)cc3F)c2cc1OC` [Example 114, 4-cyclopropoxy-N-[3,5-difluoro-4-({6-methoxy-7-[2-(methylamino)ethoxy]quinolin-4-yl}oxy)phenyl]-2-methylpyrimidine-5-carboxamide], for which the half-maximal effective concentration (EC50) (in assay [1]; on Ba/F3-TPR-MET cells) was 0.1 to 1 µM in each case. Further, the concentration for half-maximal inhibition (IC50) on MET and on MET D1228N was not above 0.1 µM in each case.

In the case of `CNCCOc1ccc2c(Oc3c(F)cc(NC(=O)c4cnccc4OC)cc3F)ccnc2c1` [Example 10, N-(3,5-difluoro-4-((7-(2-(methylamino)ethoxy)quinolin-4-yl)oxy)phenyl)-4-methoxypyridine-3-carboxamide], the half-maximal effective concentration (EC50) (in assay [1]; on Ba/F3-TPR-MET cells) was not above 0.1 µM each time. The half-inhibitory concentration (IC50) at MET and at MET D1228N was not above 0.1 µM in each case.

For `COc1cc2c(Oc3c(F)cc(NC(=O)c4c(OC5CC5)ccnc4F)cc3F)ccnc2cc1OCCO` [Example 118], the concentration giving a half-maximal response (EC50) (in assay [1]; at Ba/F3-TPR-MET cells) was not above 0.1 µM in each case. The concentration for half-maximal inhibition (IC50) on MET and on MET D1228N was not above 0.1 µM each time.

For `CNCCOc1ccc2c(Oc3c(F)cc(NC(=O)c4cnc(Cl)cc4OC4CC4)cc3F)ccnc2c1` [Example 113, 6-chloro-4-cyclopropoxy-N-[3,5-difluoro-4-({7-[2-(methylamino)ethoxy]quinolin-4-yl}oxy)phenyl]pyridine-3-carboxamide], the EC50 (in assay [1]; on Ba/F3-TPR-MET cells) was not above 0.1 µM in each case. The IC50 on MET and at MET D1228N was not above 0.1 µM in each case.

On to `CNCCOc1cc2nccc(Oc3c(F)cc(NC(=O)c4cnc(F)cc4OC4CC4)cc3F)c2cc1OC` [Example 110, 4-cyclopropoxy-N-[3,5-difluoro-4-({6-methoxy-7-[2-(methylamino)ethoxy]quinolin-4-yl}oxy)phenyl]-6-fluoropyridine-3-carboxamide], for which the EC50 (in assay [1]; at Ba/F3-TPR-MET cells) was not above 0.1 µM each time. In addition, the half-inhibitory concentration (IC50) on MET and on MET D1228N was not above 0.1 µM in each case.

In the case of `CNCCCOc1cc2nccc(Nc3c(F)cc(NC(=O)c4cnccc4OC)cc3F)c2cc1OC` [Example 19, N-(3,5-difluoro-4-((6-methoxy-7-(3-(methylamino)propoxy)quinolin-4-yl)amino)phenyl)-4-methoxypyridine-3-carboxamide], the half-maximal effective concentration (EC50) (in assay [1]; at Ba/F3-TPR-MET cells) was more than 10 µM each time. Further, the IC50 at MET and on MET D1228N was not above 0.1 µM in each case.

In the case of `O=C(Nc1cc(F)c(Oc2ccnc3cc(OC4CNC4)ccc23)c(F)c1)c1cnccc1OC1CC1` [Example 89, N-(4-{[7-(azetidin-3-yloxy)quinolin-4-yl]oxy}-3,5-difluorophenyl)-4-cyclopropoxypyridine-3-carboxamide], the EC50 (in assay [1]; at Ba/F3-TPR-MET cells) was 0.1 to 1 µM throughout. The concentration for half-maximal inhibition (IC50) on MET and on MET D1228N was not above 0.1 µM each time.

For `COc1cc2c(Oc3c(F)cc(NC(=O)c4nnccc4OC4CC4)cc3F)ccnc2cc1OCCO` [Example 148, 4-cyclopropoxy-N-(3,5-difluoro-4-((7-(2-hydroxyethoxy)-6-methoxyquinolin-4-yl)oxy)phenyl)pyridazine-3-carboxamide], the 50% effective concentration (EC50) (in assay [1]; at Ba/F3-TPR-MET cells) was not above 0.1 µM each time. The IC50 on MET and on MET D1228N was not above 0.1 µM in each case.

In the case of `CNCCCOc1cc2nccc(Oc3cc(F)c(NC(=O)c4cnccc4OC)cc3F)c2cc1OC` [Example 22, N-[2,5-difluoro-4-({6-methoxy-7-[3-(methylamino)propoxy]quinolin-4-yl}oxy)phenyl]-4-methoxypyridine-3-carboxamide], the concentration giving a half-maximal response (EC50) (in assay [1]; on Ba/F3-TPR-MET cells) was 0.1 to 1 µM throughout. The concentration for half-maximal inhibition (IC50) on MET and at MET D1228N was not above 0.1 µM in each case.

For `COC[C@H](C)Oc1cc2c(Oc3c(F)cc(NC(=O)c4cnccc4OC)cc3F)ccnc2cc1OC` [Example 128, (S)-N-(3,5-difluoro-4-((7-methoxy-6-((1-methoxypropan-2-yl)oxy)quinolin-4-yl)oxy)phenyl)-4-methoxynicotinamide], the 50% effective concentration (EC50) (in assay [1]; on Ba/F3-TPR-MET cells) was not above 0.1 µM in each case. The IC50 on MET and at MET D1228N was not above 0.1 µM throughout.

In the case of `COC[C@H](C)Oc1nc2c(Oc3c(F)cc(NC(=O)c4cnccc4OC)cc3F)ccnc2cc1OC` [Example 146, (S)-N-(3,5-difluoro-4-((7-methoxy-6-((1-methoxypropan-2-yl)oxy)-1,5-naphthyridin-4-yl)oxy)phenyl)-4-methoxynicotinamide], the concentration for a half-maximal effect (EC50) (in assay [1]; at Ba/F3-TPR-MET cells) was not above 0.1 µM in each case. In addition, the IC50 on MET and on MET D1228N was not above 0.1 µM in each case.

In the case of `COc1cc2nccc(Oc3c(F)cc(NC(=O)c4cnccc4OCC(F)F)cc3F)c2cc1OCCO` [Example 143, N-(3,5-difluoro-4-((6-(2-hydroxyethoxy)-7-methoxyquinolin-4-yl)oxy)phenyl)-4-(2,2-difluoroethoxy)pyridine-3-carboxamide], the concentration for a half-maximal effect (EC50) (in assay [1]; at Ba/F3-TPR-MET cells) was not above 0.1 µM in each case. Also, the concentration for half-maximal inhibition (IC50) on MET and at MET D1228N was not above 0.1 µM throughout.

As for `COc1cc2nccc(Oc3c(F)cc(NC(=O)c4ccncc4OC)cc3F)c2cc1O[C@@H](C)CO` [Example 127, (S)-N-(3,5-difluoro-4-((6-((1-hydroxypropan-2-yl)oxy)-7-methoxyquinolin-4-yl)oxy)phenyl)-3-methoxyisonicotinamide], the EC50 (in assay [1]; on Ba/F3-TPR-MET cells) was not above 0.1 µM in each case. For the same compound, the IC50 on MET and at MET D1228N was not above 0.1 µM throughout.

As to `CCCOc1ccncc1C(=O)Nc1ccc(Oc2ccnc3cc(OCCNC)c(OC)cc23)c(F)c1F` [Example 82, N-[2,3-difluoro-4-({6-methoxy-7-[2-(methylamino)ethoxy]quinolin-4-yl}oxy)phenyl]-4-propoxypyridine-3-carboxamide], the EC50 (in assay [1]; at Ba/F3-TPR-MET cells) was 0.1 to 1 µM each time. For the same compound, the half-inhibitory concentration (IC50) at MET and on MET D1228N was not above 0.1 µM in each case.

For `CCOc1ccncc1C(=O)Nc1ccc(Oc2ccnc3cc(OCCNC)c(OC)cc23)c(F)c1F` [Example 16, N-(2,3-difluoro-4-((6-methoxy-7-(2-(methylamino)ethoxy)quinolin-4-yl)oxy)phenyl)-4-ethoxypyridine-3-carboxamide], the concentration giving a half-maximal response (EC50) (in assay [1]; on Ba/F3-TPR-MET cells) was 0.1 to 1 µM throughout. In addition, the 50% inhibitory concentration (IC50) at MET and at MET D1228N was not above 0.1 µM throughout.

With `CNCCOc1cc2nccc(Oc3c(F)cc(NC(=O)c4cnc(F)cc4OC)cc3F)c2cc1OC` [Example 44, N-(3,5-difluoro-4-((6-methoxy-7-(2-(methylamino)ethoxy)quinolin-4-yl)oxy)phenyl)-6-fluoro-4-methoxypyridine-3-carboxamide], the EC50 (in assay [1]; on Ba/F3-TPR-MET cells) was 0.1 to 1 µM each time. Moreover, the IC50 at MET and on MET D1228N was not above 0.1 µM in each case.

With `CNCCOc1cc2nccc(Oc3c(F)cc(NC(=O)c4cnccc4OCCO)cc3F)c2cc1OC` [Example 63, N-[3,5-difluoro-4-({6-methoxy-7-[2-(methylamino)ethoxy]quinolin-4-yl}oxy)phenyl]-4-(2-hydroxyethoxy)pyridine-3-carboxamide], the EC50 (in assay [1]; at Ba/F3-TPR-MET cells) was 0.1 to 1 µM each time. Also, the concentration for half-maximal inhibition (IC50) at MET and at MET D1228N was not above 0.1 µM each time.

`CNCCOc1cc2nccc(Oc3c(F)cc(NC(=O)c4cnccc4OC4CC(F)(F)C4)cc3F)c2cc1OC` [Example 57, N-[3,5-difluoro-4-({6-methoxy-7-[2-(methylamino)ethoxy]quinolin-4-yl}oxy)phenyl]-4-(3,3-difluorocyclobutoxy)pyridine-3-carboxamide]: the EC50 (in assay [1]; on Ba/F3-TPR-MET cells) was 0.1 to 1 µM each time. Further, the concentration for half-maximal inhibition (IC50) at MET and at MET D1228N was not above 0.1 µM each time.

In the case of `COc1cc2c(Oc3c(F)cc(NC(=O)c4cnccc4OC4CC4)cc3F)ccnc2cc1OCCO` [Example 97, 4-cyclopropoxy-N-(3,5-difluoro-4-{[7-(2-hydroxyethoxy)-6-methoxyquinolin-4-yl]oxy}phenyl)pyridine-3-carboxamide], the EC50 (in assay [1]; at Ba/F3-TPR-MET cells) was not above 0.1 µM throughout. Further, the concentration for half-maximal inhibition (IC50) on MET and at MET D1228N was not above 0.1 µM throughout.

As for `CNCCOc1cc2nccc(Oc3c(F)cc(NC(=O)c4cnccc4OC[C@H](C)F)cc3F)c2cc1OC` [Example 62, N-[3,5-difluoro-4-({6-methoxy-7-[2-(methylamino)ethoxy]quinolin-4-yl}oxy)phenyl]-4-[(2S)-2-fluoropropoxy]pyridine-3-carboxamide], the concentration for a half-maximal effect (EC50) (in assay [1]; on Ba/F3-TPR-MET cells) was not above 0.1 µM in each case. Further, the half-maximal inhibitory concentration (IC50) at MET and on MET D1228N was not above 0.1 µM in each case.

On to `COc1cc2c(Oc3c(F)cc(NC(=O)c4c(OCC(F)F)ccnc4F)cc3F)ccnc2cc1OCCO` [Example 141, N-(3,5-difluoro-4-((7-(2-hydroxyethoxy)-6-methoxyquinolin-4-yl)oxy)phenyl)-4-(2,2-difluoroethoxy)-2-fluoropyridine-3-carboxamide], for which the 50% effective concentration (EC50) (in assay [1]; on Ba/F3-TPR-MET cells) was not above 0.1 µM throughout. The concentration for half-maximal inhibition (IC50) on MET and at MET D1228N was not above 0.1 µM throughout.

By EC50 is commonly meant the concentration needed to bring the measured effect to its halfway point. In general, IC50 refers to the point on the concentration scale where inhibition reaches its midpoint.
